Source: publication PMC7238232, “Acamprosate Is a Substrate of the Human Organic Anion Transporter (OAT) 1 without OAT3 Inhibitory Properties: Implications for Renal Acamprosate Secretion and Drug–Drug Interactions” (Pharmaceutics, 2020)
“Also recorded” adds a separate entry of the source. Like-named read-outs stand apart in the source and are kept apart here.

How the values were obtained:
[1] = rats, cited from earlier work
[2] = target: T1, OAT3 (Homo sapiens, UniProt Q8TCC7); experiment: [3H]-E3S uptake and its inhibition in HEK293-Flp-In OAT3 cells; type: cell-based
T1 sequence (Q8TCC7 1-542): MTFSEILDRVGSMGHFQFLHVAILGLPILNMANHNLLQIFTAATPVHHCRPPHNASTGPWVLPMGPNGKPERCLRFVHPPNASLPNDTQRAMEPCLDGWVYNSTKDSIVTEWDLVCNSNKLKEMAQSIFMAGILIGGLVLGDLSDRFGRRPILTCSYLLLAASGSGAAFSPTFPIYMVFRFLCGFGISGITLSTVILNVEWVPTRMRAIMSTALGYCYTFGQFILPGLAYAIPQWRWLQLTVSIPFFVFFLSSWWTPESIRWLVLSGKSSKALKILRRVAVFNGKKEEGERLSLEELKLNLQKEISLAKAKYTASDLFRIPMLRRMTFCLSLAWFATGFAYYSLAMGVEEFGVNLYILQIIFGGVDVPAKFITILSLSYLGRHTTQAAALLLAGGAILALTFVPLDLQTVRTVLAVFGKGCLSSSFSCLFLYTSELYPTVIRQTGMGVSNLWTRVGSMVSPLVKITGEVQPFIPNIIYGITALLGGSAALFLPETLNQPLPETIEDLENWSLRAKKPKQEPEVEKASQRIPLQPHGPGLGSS
Experimental: All uptake experiments were performed on 24- or 96-well plates. Before the experiment initiation, the cells were incubated with either 500 or 200 µL∙well^−1 prewarmed buffer for 10 min at 37 °C in a microplate incubator (VWR International AB, Stockholm, Sweden), without shaking. […] The experiment was stopped by adding 200 µL∙well^−1 of ice-cold buffer and subsequent rinse three times with the same amount of buffer. In Lab. 1 the sample analysis of the OAT1/OAT3/mock studies consisted in removing the rinsing buffer and lysing the cells with 70 µL 1M NaOH, following by incubation for 60 min at 37 °C and 100 rpm. A total of 50 µL of cell lysate from each well was transferred to 96-well Luma plates bottom coated with dry scintillant. Then, 2∙20 µL of each donor and three 50 µL blank samples were applied on the same plate. The dry plates were covered with transparent seals and analyzed using a TopCount NXT Microplate Scintillation and Luminescence Counter (Perkin Elmer, Waltham, MA, USA). The remaining 20 µL cell lysate was neutralized with 20 µL 1M HCl∙well^−1, samples were mixed thoroughly and the total protein content in all the wells was measured using a BCA protein assay kit, microplate method, and a Tecan Safire II fluorometer (Tecan Austria GmbH, Grödig, Austria). For the experiments in Lab. 2, the cells were lysed by adding 200 µL 0.1% Triton X-100 and incubated for 5 min at 37 °C and 100 rpm. […] The total protein content was measured by using a BCA protein assay kit and a FLUOStar Omega fluorescence microplate reader (BMG Labtech, Ortenberg, Germany). The protein assay for the OAT3 and mock cell lines was performed in four independent wells of each cell line, seeded and treated in the same manner as the cells used in the uptake assay. For all the OAT1, OAT3, and mock isotope uptake studies, the radiolabelled tracer accumulation (pmol) in each well was calculated by first determining the activity of the isotope (DPM∙pmol^−1) from the radioactivity (DPM) of the donor sample divided by the theoretical isotope concentration (pmol), then dividing the total radioactivity in the well (DPM) to the specific activity of the isotope (DPM∙pmol^−1).
A range of preincubation solutions was prepared at the same concentrations of acamprosate applied in the inhibition assays. Acamprosate was dissolved in HBSS buffered with 10 mM HEPES and the pH was adjusted to 7.40 ± 0.01. The preincubation solutions were prewarmed to 37 °C and applied to the corresponding cells after removing the cell growth medium. The preincubation was done for 3 h, at 37 °C, without shaking. After the preincubation, the solutions were removed, and the inhibition experiment was performed as described in the Section 2.6.
The obtained intracellular amounts (pmol) were normalized to the assay time (min) and cell surface area (cm^2) or protein amount (mg protein) to obtain a term hereafter referred to as uptake rate. […] Assuming competitive interaction, equilibrium dissociation constants, Ki, were calculated from the IC50 value for each substrate/inhibitor pair, at substrate Km, using the Cheng–Prusoff equation [24].

[3] = tested on: HEK293-Flp-In OAT1 cells; experiment: CellTiter-Glo cell viability assay, OAT1 transfected cells; details: up to 3300 µM acamprosate; 3 h
[4] = tested on: EAAT1; details: Caco-2 cells, preliminary data; cited from earlier work
[5] = tested on: OATP2B1; details: Caco-2 cells, preliminary data; cited from earlier work
[6] = tested on: B^0,+AT/rBAT; details: Caco-2 cells, preliminary data; cited from earlier work

CC(=O)NCCCS(=O)(=O)O [acamprosate, acetylhomotaurinate]
CLR, % of the initial CLR ([1]; 9.3 mg/kg acamprosate i.v. with 33.3 mg/kg probenecid): 59%
CLR, % of the initial CLR ([1]; 9.3 mg/kg acamprosate i.v. with 66.6 mg/kg probenecid): 45%
unbound acamprosate CLR with probenecid, compared to control [1]: 0.45 fold
increase in acamprosate AUC0∞ caused by probenecid ([1]; compared to control): 2.2 fold
renal clearance (CLR) ([1]; intravenous 9.3 mg/kg acamprosate, without probenecid): 0.35 L/h
IC50 [2]: > 10 mM
effect on uptake of [3H]-E3S in OAT3 expressing cells ([2]; 0.02 µM [3H]-E3S, 200 µM E3S, 300 µM probenecid, 1000 or 10,000 µM acamprosate, Lab. 2): did not affect
inhibition of [3H]-E3S uptake via OAT3, with and without 3 h preincubation ([2]; all applied acamprosate concentrations, up to 10 mM): lack of inhibitory effect; also recorded: did not inhibit
IC50 ([2]; read-out: IC50, Estrone-3-Sulfate, input for DDI index, Table A1): > 10 mM
decrease in cell viability [3]: ≤ 10%
inhibition of substrate transport via EAAT1 [4]: did not inhibit
inhibition of substrate transport via OATP2B1 [5]: did not inhibit
inhibition of substrate transport via B^0,+AT/rBAT [6]: did not inhibit
